Data: US9410158B2, “Genetically modified yeast species, and fermentation processes using genetically modified yeast” (Cargill Incorporated, priority 2003, dated 2016)

Test system: xylose isomerase enzyme (PXYLA)
Experiment: Inhibition of PXYLA activity in strain CD861 using xylitol (Ex. 8E)
Assay type: biochemical, Piromyces sp. E2
Method: Strain CD861 was grown in xylose media containing varying concentrations of xylitol, a known xylose isomerase inhibitor.

`OC[C@@H](O)[C@H](O)[C@@H](O)CO` [xylitol] was tested, and the “change of Km for the xylose isomerase enzyme” value (xylitol increased from 0 to 0.25 mM) was “doubled” and the “change of Km for the xylose isomerase enzyme” value (xylitol increased to 0.50 mM) was “doubled again”.
